Experimental data from BindingDB's records for doi:10.7270/Q2ZG6QP2 (Nmmlsc, 2010).

These compounds were tested against T1, Integrin alpha-4 (Homo sapiens, UniProt P13612) (assay: concentration series for VLA-4 modulators – cell-based, U937, HUTS-21 LIBS antibody, flow cytometry, dose response (AID 449766)). Settings: not given.
T1 sequence (P13612 whole entry): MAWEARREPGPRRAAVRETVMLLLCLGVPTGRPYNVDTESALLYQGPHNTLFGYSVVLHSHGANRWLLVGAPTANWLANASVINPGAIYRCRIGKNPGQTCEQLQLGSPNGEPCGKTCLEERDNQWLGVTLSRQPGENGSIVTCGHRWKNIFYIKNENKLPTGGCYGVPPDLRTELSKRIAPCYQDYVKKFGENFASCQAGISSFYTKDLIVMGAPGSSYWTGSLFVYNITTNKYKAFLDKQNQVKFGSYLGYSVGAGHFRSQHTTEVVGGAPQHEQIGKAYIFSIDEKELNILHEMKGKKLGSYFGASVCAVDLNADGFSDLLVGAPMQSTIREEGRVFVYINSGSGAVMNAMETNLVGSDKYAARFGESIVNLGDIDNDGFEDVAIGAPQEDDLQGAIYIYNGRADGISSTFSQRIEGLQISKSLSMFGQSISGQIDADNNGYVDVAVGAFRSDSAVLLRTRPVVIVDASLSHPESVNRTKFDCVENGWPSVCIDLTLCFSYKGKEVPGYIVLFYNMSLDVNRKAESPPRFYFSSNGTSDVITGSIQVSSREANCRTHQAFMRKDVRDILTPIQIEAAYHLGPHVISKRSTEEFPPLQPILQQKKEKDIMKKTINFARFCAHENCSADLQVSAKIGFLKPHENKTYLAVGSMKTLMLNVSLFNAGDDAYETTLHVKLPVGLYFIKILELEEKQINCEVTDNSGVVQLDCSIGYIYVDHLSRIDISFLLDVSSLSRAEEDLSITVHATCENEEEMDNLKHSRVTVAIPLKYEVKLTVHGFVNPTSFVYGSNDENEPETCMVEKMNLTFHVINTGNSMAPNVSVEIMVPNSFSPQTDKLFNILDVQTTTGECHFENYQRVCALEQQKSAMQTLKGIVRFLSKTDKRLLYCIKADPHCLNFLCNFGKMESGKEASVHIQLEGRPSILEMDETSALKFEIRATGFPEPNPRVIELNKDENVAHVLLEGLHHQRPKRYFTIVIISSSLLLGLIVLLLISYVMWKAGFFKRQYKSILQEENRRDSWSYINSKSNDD

Structure (SMILES) | EC50
C[S+]([O-])c1nc(-c2ccc(Br)cc2)cc(-c2ccccc2)c1C#N (configuration not stated) [6-(4-bromophenyl)-2-(methylsulfinyl)-4-phenylnicotinonitrile] | 2.67 µM
C=C(C=O)C[C@@H]1C[C@H](O)C2OC3C[C@]4(C)OC5/C=C\CC6OC7C(CC=CCC6OC5CCCC4OC3CC2O1)OC1CC2OC3CC(=O)OC3C[C@@H](C)C[C@@]2(C)OC1C[C@@H]7C (some centres not stated) [MLS002320514] | 2.15 µM
c1ccc(-c2sc3ccccc3c2-c2ccc(OCCN3CCCC3)cc2)cc1 [1-[2-[4-(2-phenyl-1-benzothiophen-3-yl)phenoxy]ethyl]pyrrolidine] | 14.8 µM
COC(=O)C1CN(C#N)N(c2ccc(Cl)cc2)C12c1ccccc1-c1ccccc12 (configuration not stated) [2'-(4-chlorophenyl)-1'-cyano-4'-spiro[fluorene-9,3'-pyrazolidine]carboxylic acid methyl ester] | 6.71 µM
COc1ccc(C(=O)c2cc([N+](=O)[O-])ccc2N2CCOCC2)cc1 [MLS000663963] | > 30 µM
O=C(COc1ccc(C=NNC(=O)c2cc3ccccc3o2)cc1Cl)Nc1ccccc1 [SMR000160815] | > 30 µM
CCOC(=O)COc1ccccc1/C=C\[N+](=O)[O-] [SMR000204386] | 2.45 µM
COc1cccc(-c2sc3ccccc3c2-c2ccc(OCCN(C)C)cc2)c1 | 12.4 µM
COC(=O)[C@@H]1[C@@H](C(=O)OC)C2(c3ccccc3-c3ccccc32)N(c2ccc(Cl)cc2)N1C#N [(3'S,4'R)-1'-(4-chlorophenyl)-2'-cyanospiro[fluorene-9,5'-pyrazolidine]-3',4'-dicarboxylic acid dimethyl ester] | > 30 µM
CCOC(=O)C(=Cc1ccc(OC(F)F)cc1)C1=Nn2c(nnc2-c2ccc(Cl)cc2)SC1 [ethyl (Z)-2-[3-(4-chlorophenyl)-7H-[1,2,4]triazolo[3,4-b][1,3,4]thiadiazin-6-yl]-3-[4-(difluoromethoxy)phenyl]prop-2-enoate] | 7.79 µM
CC(NC(=O)/C(C#N)=C/c1ccc(Cl)c([N+](=O)[O-])c1)c1ccccc1 (configuration not stated) [(E)-3-(4-chloro-3-nitrophenyl)-2-cyano-N-(1-phenylethyl)prop-2-enamide] | 0.95 µM
COC(=O)C[C@]1(C(=O)OC)CN(C#N)N(c2ccc(Cl)cc2)C12c1ccccc1-c1ccccc12 [methyl 1-(4-chlorophenyl)-2-cyano-4-(2-methoxy-2-oxoethyl)spiro[pyrazolidine-5,9'-(9'H)-fluorene]-4-carboxylate] | > 30 µM
CN(C)CCOc1ccc(-c2c(-c3ccccc3)sc3ccccc23)cc1 [SMR001397792] | > 30 µM
COc1ccc(-c2sc3ccccc3c2-c2ccc(OCCN(C)C)cc2)cc1 [MLS002473632] | > 30 µM
COc1cccc(-c2sc3ccccc3c2-c2ccc(OCCN3CCCC3)cc2)c1 | > 30 µM
C=C1C(O)[C@@H]2O[C@]3(CC[C@H](/C=C/C(C)[C@@H]4CC(C)=CC5(O[C@H](C[C@@](C)(O)CO)CCC5O)O4)O3)CC[C@H]2O[C@@H]1C(O)CC(C)[C@H]1OC2(CCCCO2)CCC1C (some centres not stated) [MLS002320507] | 0.61 µM
Cc1ccc(NC(=O)c2cc(N3C(=O)C=CC3=O)ccc2N2CCOCC2)cc1Cl [N-(3-chloro-4-methylphenyl)-5-(2,5-dioxo-2,5-dihydro-1H-pyrrol-1-yl)-2-(4-morpholinyl)benzamide] | 5.5 µM
CCOCCCNC(=O)/C(C#N)=C/c1ccc(Cl)c([N+](=O)[O-])c1 [(E)-3-(4-chloro-3-nitrophenyl)-2-cyano-N-(3-ethoxypropyl)-2-propenamide] | 3.59 µM

Same assay, conditions: inactive by the depositor's call

Structure (SMILES) | EC50
FC(F)(F)c1nnc(-c2ccccc2)nc1Sc1ccc(Cl)cc1 [SMR000180067] | 0.73 µM
CC1(C)C[C@H]2C=C(C=O)[C@]3(C=O)C[C@]3(C)[C@H]2C1 | 3.15 µM
COc1cccc(-c2sc3ccc(OC)cc3c2-c2ccc(OCCN(C)C)cc2)c1 [SMR001397780] | 0.22 µM
COc1cccc(-c2sc3ccccc3c2-c2ccc(OCCN3CCCCC3)cc2)c1 [SMR001397793] | 5.46 µM
